Test results: patent publication US20220220135A1 (BAR-ILAN UNIVERSITY, priority 2019, published 2022)
Where “and” joins values, the source holds several entries; their conditions need not be identical. Identical values can stand only once.

What was measured:
human NPP3 [1] = molecular target: T1, human NPP3 (Homo sapiens, UniProt O14638); test: Inhibition of human NPP3, pNP-TMP as substrate (analogues 9-12); type: biochemical; details: analogue at 100 μM; pNP-TMP 100 μM as substrate
T1 sequence (O14638 1-875): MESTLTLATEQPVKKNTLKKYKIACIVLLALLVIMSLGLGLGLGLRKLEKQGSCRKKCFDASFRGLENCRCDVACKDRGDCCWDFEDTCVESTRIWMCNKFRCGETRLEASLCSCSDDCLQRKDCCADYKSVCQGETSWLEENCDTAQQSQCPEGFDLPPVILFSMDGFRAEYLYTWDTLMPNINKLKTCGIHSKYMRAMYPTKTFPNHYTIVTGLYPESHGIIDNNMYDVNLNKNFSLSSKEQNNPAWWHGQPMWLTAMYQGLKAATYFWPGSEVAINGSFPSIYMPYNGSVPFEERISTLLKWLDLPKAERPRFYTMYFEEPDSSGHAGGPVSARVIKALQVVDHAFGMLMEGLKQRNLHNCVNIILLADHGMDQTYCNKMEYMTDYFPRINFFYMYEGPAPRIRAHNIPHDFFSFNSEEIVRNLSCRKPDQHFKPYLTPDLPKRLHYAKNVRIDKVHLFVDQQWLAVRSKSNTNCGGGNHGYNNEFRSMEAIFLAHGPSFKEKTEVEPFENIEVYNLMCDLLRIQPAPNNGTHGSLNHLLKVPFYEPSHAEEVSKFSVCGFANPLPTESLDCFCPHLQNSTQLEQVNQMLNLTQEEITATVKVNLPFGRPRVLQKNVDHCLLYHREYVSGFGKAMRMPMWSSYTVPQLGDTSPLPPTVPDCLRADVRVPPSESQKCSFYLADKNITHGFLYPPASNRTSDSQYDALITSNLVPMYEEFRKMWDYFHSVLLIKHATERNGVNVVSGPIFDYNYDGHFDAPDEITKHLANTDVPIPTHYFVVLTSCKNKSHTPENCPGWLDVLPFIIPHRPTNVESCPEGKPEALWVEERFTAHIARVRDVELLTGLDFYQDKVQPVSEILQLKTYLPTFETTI
Procedure: (§1) FIG. 2: Inhibition of NTPDases and NPPs by analogues 9-12 using as substrates ATP (100 μM) for NTPDase1,2,3,8 and pNP-TMP (100 μM) for NPP1,3 (Panel A); and ATP (100 μM) was used as the substrate for NPP1 (Panel B);
(§2) At least 2 independent experiments were performed. In panel A, the activity with 100 μM ATP was set as 100%, which was 287±31, 395±67, 278±22, 119±26 nmol of Pi·min−1·mg of protein−1 for human NTPDase1, -2, -3 and -8, respectively, and the activity with 100 μM pNP-TMP was set as 100% which was 67±5, 21±1 nmol of p-nitrophenol·min−1·mg of protein−1 for human NPP1 and NPP3, respectively. In panel B, the activity with 100 μM ATP was set as 100% which was 34±7 nmol of PPi·min−1·mg of protein−1 for NPP1.

NTPDase8 [2] = molecular target: T2, NTPDase8 (Homo sapiens, UniProt Q5MY95); test: Inhibition of ATPase activity of human NTPDase8; type: biochemical; details: analogue at 100 μM; ATP 100 μM as substrate
T2 sequence (Q5MY95 1-495): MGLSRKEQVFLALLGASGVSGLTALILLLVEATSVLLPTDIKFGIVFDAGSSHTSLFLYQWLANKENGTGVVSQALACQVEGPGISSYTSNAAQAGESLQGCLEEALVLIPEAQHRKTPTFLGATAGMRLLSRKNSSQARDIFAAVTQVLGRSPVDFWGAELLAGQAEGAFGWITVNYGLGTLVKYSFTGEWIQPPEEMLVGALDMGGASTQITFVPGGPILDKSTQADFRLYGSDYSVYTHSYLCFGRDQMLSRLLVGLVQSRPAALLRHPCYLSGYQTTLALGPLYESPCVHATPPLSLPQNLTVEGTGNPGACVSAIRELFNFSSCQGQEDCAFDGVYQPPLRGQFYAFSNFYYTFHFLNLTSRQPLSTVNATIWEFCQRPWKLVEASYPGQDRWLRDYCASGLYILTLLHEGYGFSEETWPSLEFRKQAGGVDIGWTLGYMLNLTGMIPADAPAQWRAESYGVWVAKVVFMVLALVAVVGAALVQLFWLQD
Procedure: as §1, §2

P2Y6R = P2Y6R (Homo sapiens, UniProt Q15077); test: P2Y6R agonist activity, inositol-1-phosphate (IP1) accumulation; type: cell-based; design: expressed in transfected cells; host or cells: AD293 cells; details: vs. UDP
Description: FIG. 3: P2Y6R agonist activity of analogues 9-12 vs. UDP determined by measuring the production of inositol-1-phosphate (IP1);

NTPDase8 [3] = molecular target: T2, NTPDase8; test: Stability to hydrolysis by human NTPDase8; type: in vitro ADME; details: analogue 100 μM; activity with 100 μM ATP = 100%
Procedure: Uridine 5′-Pα,α-phosphorodithioate analogues, 9-12, were tested for their stability to degradation by NPP1 and NTPDases. These enzymes are involved in the metabolism of extracellular nucleotides. Analogues 9-12 were not hydrolyzed by hNPP1 (Table 2). […] Analogue 10 was hydrolyzed by hNTPDase1, -2 and -3 at 30-39% the rate of ATP and was slightly hydrolyzed by human NTPDase8 at 16% the rate of ATP.
Analogues 9-12 were incubated in the presence of the indicated ectonucleotidase at a concentration of 100 μM. The activity with 100 μM ATP was set as 100%, which was 329±108, 302±34, 263±51, 195±76 nmol of Pi·min−1·mg of protein−1 for NTPDase1, -2, -3 and -8, respectively, and 34±7 nmol for NPP1. Data presented are the mean±SEM of results from two experiments.

human NPP3 [4] = molecular target: T1, human NPP3; test: Inhibition of human NPP3, 100 μM p-Nph-5′-TMP as substrate (Tables 5, 7); type: biochemical; details: 100 μM p-Nph-5′-TMP as a substrate; n = 3

P2Y6R, sequence (Q15077 whole entry): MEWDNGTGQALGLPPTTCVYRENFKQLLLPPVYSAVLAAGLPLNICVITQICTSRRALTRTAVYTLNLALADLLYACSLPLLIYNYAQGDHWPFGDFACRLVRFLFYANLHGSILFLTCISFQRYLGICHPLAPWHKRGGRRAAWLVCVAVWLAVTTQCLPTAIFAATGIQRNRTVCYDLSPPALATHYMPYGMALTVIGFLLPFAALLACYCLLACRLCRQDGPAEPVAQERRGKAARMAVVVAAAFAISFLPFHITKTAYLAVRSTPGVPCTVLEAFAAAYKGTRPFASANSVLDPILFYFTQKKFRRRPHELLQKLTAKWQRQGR

SMILES | inhibition at 100 µM (human NPP3 [1]) [%] | inhibition of human NTPDase8 (NTPDase8 [2]) | P2Y6-R agonist activity (IP1 accumulation) (P2Y6R) | inhibition of human NPP3 (human NPP3 [1]) | Relative activity (%) ± SEM of ATP hydrolysis, NTPDase8 (NTPDase8 [3]) | % inhibition ± SEM, human NPP3 (human NPP3 [4])
O=c1ccn([C@@H]2O[C@H](COP(=S)(S)OP(=O)(O)OP(=O)(O)OP(=S)(S)OC[C@H]3O[C@@H](n4ccc(=O)[nH]c4=O)[C@H](O)[C@@H]3O)[C@@H](O)[C@H]2O)c(=O)[nH]1 (some centres unmarked) [Analogue 12] | 27 | selective to NPP1 | limited agonist activities | – | – | –
O=c1ccn([C@@H]2O[C@H](COP(=S)(S)OP(=O)(O)OP(=O)(O)O)[C@@H](O)[C@H]2O)c(=O)[nH]1 (some centres unmarked) [Analogue 10] | – | no inhibition | limited agonist activities | no inhibition | 16% and 16.5 ± 2.8% | –
Nc1ncnc2c1ncn2COCCOP(=S)(S)OP(=O)(O)O (centres unmarked) [compound 106] | – | – | – | – | – | n.i.d
O=c1ccn([C@@H]2O[C@H](COP(=S)(S)OP(=O)(O)CP(=O)(O)O)[C@@H](O)[C@H]2O)c(=O)[nH]1 (some centres unmarked) [Analogue 11] | 21 | negligible effects | devoid of any P2Y6—R activity | – | – | –
